Measurements: US20210253598A1, “ARYL ANNULATED MACROCYCLIC INDOLE DERIVATIVES” (priority 2017, published 2021)
Where “and” joins values, the source holds several entries; their conditions need not be identical. Equal values may be shown once. Where a name gives a salt, the structure may show the parent alone. Read-outs that look alike come from different tables or passages of the source.

How the values were obtained:
[1] = target: MCL-1 (Homo sapiens, UniProt Q07820, K194A/K197A/R201A); assay: Protein-compound interaction assay, surface plasmon resonance (SPR assay, Assay 8); type: binding
Sequence of MCL-1 (Q07820 173-321 K194A/K197A/R201A, looked up): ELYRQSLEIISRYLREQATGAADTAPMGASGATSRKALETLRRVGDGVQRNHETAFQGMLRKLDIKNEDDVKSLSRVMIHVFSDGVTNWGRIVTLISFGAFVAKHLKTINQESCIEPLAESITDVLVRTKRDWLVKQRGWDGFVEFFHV
From the text: Protein-Compound Interaction Assay (SPR Assay)
The ability of the compounds described in this invention to bind to MCL-1 may be determined using surface plasmon resonance (SPR). This allows for the quantification of binding in terms of the equilibrium dissociation constant (KD [M]), as well as association and dissociation rate constants (kon [1/M 1/s] and koff [1/s], respectively). The measurements may be performed using Biacore® T200 or Biacore® S200 instruments (GE Healthcare).
Briefly, carboxymethylated dextran biosensor chips (Series S Sensor Chip CM5, GE Healthcare) were activated with 1-ethyl-3-(3-dimethylaminopropyl)-carbodiimide hydrochloride (EDC) and N-hydroxysuccinimide (NHS) according to the supplier's instructions. MBP-MCL-1 was diluted in 1×PBS-P+ (GE Healthcare) and injected on the activated chip surface. Subsequently, a solution of 1 M ethanolamine-HCl (GE Healthcare) was injected to block unreacted groups, resulting in approximately 400-2500 response units (RU) of immobilized protein. A reference surface was generated by treatment with NHS-EDC and ethanolamine-HCl. […] Compounds were injected for 60 s followed by a dissociation time of up to 1000 s.
The double-referenced sensorgrams were fit to a simple reversible Langmuir 1:1 reaction mechanism as implemented in the Biacore® T200 and S200 evaluation software (T200 evaluation software version 2.0 and S200 evaluation software version 1.0, GE Healthcare).

[2] = tested on: SUDHL5; assay: Induction of caspase-3/7 activity in SUDHL5 cells (Assay 4); type: cell-based
Method in brief: (§1)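 DLBCL lines SUDHL5 and SUDHL10 were treated with compound for 3 h at 37 °C. Caspase-3/7 activity was then read by Caspase-Glo 3/7 luminescence after 1 h at 37 °C. Medium-only background was subtracted and values were normalized to the mean of DMSO-treated cells.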

[3] = tested on: SUDHL5; assay: Induction of cytotoxicity in SUDHL5 cells, CellTiter-Glo (Assay 6); type: cell-based; settings: SUDHL5, 5 hours incubation, median, read-out: Cytotox SUDHL5 [M] (median)
Method in brief: (§2)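 Cells plated and held overnight at 37° C in a humidified incubator, then compound-treated for 5 hours at 37° C. Viability read by CellTiter-Glo luminescence after 15 minutes shaking at room temperature; cell-free medium served as control.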

[4] = tested on: SUDHL10; assay: Induction of cytotoxicity in SUDHL10 cells, CellTiter-Glo (Assay 6); type: cell-based; settings: SUDHL10, 5 hours incubation, median, read-out: Cytotox SUDHL10 [M] (median)
Method in brief: as §2

[5] = tested on: SUDHL10; assay: Induction of caspase-3/7 activity in SUDHL10 cells (Assay 4); type: cell-based
Method in brief: as §1

[6] = tested on: A2780; assay: Anti-proliferative effect in A2780 cells, CellTiter-Glo (Assay 7); type: cell-based; settings: several values per example
Method in brief: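 Cells plated and incubated overnight at 37° C, then exposed to compound for 72 hours. Viability read as CellTiter-Glo luminescence, with a day 0 plate as time-zero reference. IC50 calculated with day 0 values and DMSO control values as references.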

[7] = KD [M], SPR, immobilized MBP-MCL-1, 25° C., geometric mean
[8] = read-out: koff [1/s], SPR, immobilized MBP-MCL-1, 25° C., geometric mean
[9] = read-out: kon [1/M 1/s], SPR, immobilized MBP-MCL-1, 25° C., geometric mean
[10] = Homo sapiens, SU-DHL-5, 3 h, SUDHL5, 3 hours treatment, Caspase-Glo 3/7, median, read-out: Caspase SUDHL5 [M] (median)
[11] = Homo sapiens, SU-DHL10, 3 h, SUDHL10, 3 hours treatment, Caspase-Glo 3/7, median, read-out: Caspase SUDHL10 [M] (median)
[12] = SUDHL5, 3 hours treatment, Caspase-Glo 3/7, median, read-out: Caspase SUDHL5 [M] (median)
[13] = SUDHL10, 3 hours treatment, Caspase-Glo 3/7, median, read-out: Caspase SUDHL10 [M] (median)
[14] = SPR, immobilized MBP-MCL-1, 25° C., geometric mean
[15] = SPR, immobilized MBP-MCL-1, 25° C., geometric mean, read-out: KD
[16] = A2780, 72 hours incubation, CellTiter-Glo, read-out: Antiproli A2780
[17] = read-out: Caspase SUDHL10 [M] (median), SUDHL10, 3 hours treatment, Caspase-Glo 3/7
[18] = read-out: Caspase SUDHL5 [M] (median), SUDHL5, 3 hours treatment, Caspase-Glo 3/7

Row | Structure (SMILES) | Kd [1, 7] [M] | koff [1, 8] [s⁻¹] | kon [1, 9] [M⁻¹ s⁻¹] | EC50 [2, 12] [M] | IC50 [3] [M] | IC50 [4] [M] | EC50 [5, 13] [M] | IC50 [6, 16] | EC50 [5, 17] [M] | further results
1 | Cc1c2c(nn1C)COCc1ccccc1Cn1c(C(=O)O)c(CCCOc3cccc4cc(F)ccc34)c3ccc(Cl)c-2c31 (racemic) [Example 48, (rac)-3-Chloro-17-{3-[(6-fluoronaphthalen-1-yl)oxy]propyl}-4,5-dimethyl-5,7,9,14-tetrahydroindolo[7,1-fg]pyrazolo[3,4-d][2,8]benzoxazacycloundecine-16-carboxylic Acid] | 8e-09 | 0.006 | 750000 |  |  |  |  |  |  | EC50 [2, 10]: 1.1e-06 M; IC50 ([3]; Homo sapiens, SU-DHL-5, 5 h): 1.4e-06 M; IC50 ([4]; Homo sapiens, SU-DHL10, 5 h): 2.6e-06 M; EC50 [5, 11]: 3.1e-06 M
2 | Cc1c2c(nn1C)COCc1ncccc1Cn1c(C(=O)O)c(CCCOc3cccc4ccccc34)c3cccc-2c31 (single isomer, unassigned; enantiomer 1) [Example 8, 4,5-Dimethyl-17-[3-(naphthalen-1-yloxy)propyl]-5,7,9,14-tetrahydropyrazolo[4′,3′:9,10]-pyrido[2′,3′:3,4][1,6]oxazacycloundecino[8,7,6-hi]indole-16-carboxylic acid-N-ethylethanamine Salt (Enantiomer 1)] | 3.4e-09 |  |  | 2.5e-06 | 3e-06 | 7.2e-06 | 9.9e-06 |  |  | 
3 | Cc1c2c(nn1C)COCc1ccccc1Cn1c(C(=O)O)c(CCCOc3cccc4ccccc34)c3ccc(Cl)c-2c31 (single isomer, unassigned; enantiomer 1) [Example 37, (−)-3-Chloro-4,5-dimethyl-17-[3-(naphthalen-1-yloxy)propyl]-5,7,9,14-tetrahydroindolo[7,1-fg]pyrazolo[3,4-d][2,8]benzoxazacycloundecine-16-carboxylic Acid (Enantiomer 1)] | 4.7e-09 | 0.011 | 2.4e+06 | 8.4e-07 | 8.6e-07 | 2.7e-06 | 2.5e-06 |  |  | 
4 | CCNCC.Cc1c2c(nn1C)COCc1ncccc1Cn1c(C(=O)O)c(CCCOc3cccc4ccccc34)c3ccc(Cl)c-2c31 (single isomer, unassigned; enantiomer 1) [Example 43, 3-Chloro-4,5-dimethyl-17-[3-(naphthalen-1-yloxy)propyl]-5,7,9,14-tetrahydropyrazolo-[4′,3′:9,10]pyrido[2′,3′:3,4][1,6]oxazacycloundecino[8,7,6-hi]indole-16-carboxylic acid-N-ethylethanamine Salt (Enantiomer 1)] |  |  |  | 1.2e-06 | 1.4e-06 | 2.9e-06 | 3.7e-06 | 2.34e-05 M |  | koff [1, 14]: 0.0096 s⁻¹; kon [1/M 1/s] [1, 14]: 5.6E6 1/M 1/s; Kd [1, 15]: 1.7e-09 M
5 | Cc1c2c(nn1C)COCc1ccccc1Cn1c(C(=O)O)c(CCCOc3cccc4cc(F)ccc34)c3ccc(Cl)c-2c31 (single isomer, unassigned; enantiomer 1) [Example 49, (−)-3-Chloro-17-{3-[(6-fluoronaphthalen-1-yl)oxy]propyl}-4,5-dimethyl-5,7,9,14-tetrahydroindolo[7,1-fg]pyrazolo[3,4-d][2,8]benzoxazacycloundecine-16-carboxylic acid-N-ethylethanamine Salt (Enantiomer 1)] | 3e-09 | 0.0058 | 1.9e+06 |  |  |  |  | 7.62e-06 M and 5.26e-06 M |  | EC50 [2, 10]: 7.7e-07 M; IC50 ([3]; Homo sapiens, SU-DHL-5, 5 h): 8.8e-07 M; IC50 ([4]; Homo sapiens, SU-DHL10, 5 h): 1.6e-06 M; EC50 [5, 11]: 2.1e-06 M
6 | CCc1nn(CCN2CCOCC2)c2c1-c1c(Cl)ccc3c(CCCOc4cccc5cc(F)ccc45)c(C(=O)O)n(c13)Cc1ccccc1COC2 (single isomer, unassigned; enantiomer 1) [Example 52, (−)-3-Chloro-4-ethyl-17-{3-[(6-fluoronaphthalen-1-yl)oxy]propyl}-6-[2-(morpholin-4-yl)ethyl]-6,7,9,14-tetrahydroindolo[7,1-fg]pyrazolo[3,4-d][2,8]benzoxazacycloundecine-16-carboxylic Acid (Enantiomer 1)] |  |  |  | 4.9e-07 | 5.2e-07 | 8.8e-07 | 7.1e-07 | 2.41e-06 M |  | Kd [1, 15]: 1.5e-09 M; koff ([1]; read-out: koff [1/s]): 0.024 s⁻¹; kon ([1]; read-out: kon [1/M 1/s]): 1.6e+07 M⁻¹ s⁻¹
7 | CCc1c2c(nn1C)COCc1ccccc1Cn1c(C(=O)O)c(CCCOc3cccc4cc(F)ccc34)c3ccc(Cl)c-2c31 (single isomer, unassigned; enantiomer 1) [Example 55, (−)-3-Chloro-4-ethyl-17-{3-[(6-fluoronaphthalen-1-yl)oxy]propyl}-5-methyl-5,7,9,14-tetrahydro-indolo[7,1-fg]pyrazolo[3,4-d][2,8]benzoxazacycloundecine-16-carboxylic Acid N-ethylethanamine Salt (Enantiomer 1)] | 3.9e-09 |  |  |  | 6.4e-07 | 1.3e-06 |  |  | 8.7e-07 | EC50 ([2]; Homo sapiens, SU-DHL-5, 3 h, read-out: Caspase SUDHL5 [M] (median), SUDHL5, 3 hours treatment, Caspase-Glo 3/7): 6.6e-07 M
8 | CCc1nn(C)c2c1-c1c(Cl)ccc3c(CCCOc4cccc5cc(F)ccc45)c(C(=O)O)n(c13)Cc1ccccc1COC2 (single isomer, unassigned; enantiomer 1) [Example 58, (+)-3-Chloro-4-ethyl-17-{3-[(6-fluoronaphthalen-1-yl)oxy]propyl}-6-methyl-6,7,9,14-tetrahydro-indolo[7,1-fg]pyrazolo[3,4-d][2,8]benzoxazacycloundecine-16-carboxylic acid-N-ethylethanamine Salt (Enantiomer 1)] |  |  |  | 8e-07 | 8.1e-07 | 2.6e-06 | 2.1e-06 |  |  | 
9 | Cc1c2c(nn1C)COCc1ccccc1Cn1c(C(=O)O)c(CCCOc3cccc4ccccc34)c3ccc(F)c-2c31 (single isomer, unassigned; enantiomer 1) [Example 68, (−)-3-Fluoro-4,5-dimethyl-17-{3-[(naphthalen-1-yl)oxy]propyl}-5,7,9,14-tetrahydroindolo[7,1-fg]pyrazolo[3,4-d][2,8]benzoxazacycloundecine-16-carboxylic acid-N-ethylethanamine Salt (Enantiomer 1)] |  |  |  |  | 1.9e-06 | 4.6e-06 |  |  | 1.1e-05 | EC50 [2, 18]: 1.2e-06 M; IC50 ([6]; Homo sapiens, A2780, 72 h, read-out: Antiproli A2780 [M], A2780, 72 hours incubation, CellTiter-Glo): 2.9e-05 M
10 | CCc1c2c(nn1C)COCc1ccccc1Cn1c(C(=O)O)c(CCCOc3cccc4cc(F)ccc34)c3ccc(Cl)c-2c31 (single isomer, unassigned; enantiomer 2) [Example 56, (+)-3-Chloro-4-ethyl-17-{3-[(6-fluoronaphthalen-1-yl)oxy]propyl}-5-methyl-5,7,9,14-tetrahydro-indolo[7,1-fg]pyrazolo[3,4-d][2,8]benzoxazacycloundecine-16-carboxylic Acid N-ethylethanamine Salt (Enantiomer 2)] |  |  |  |  | 1.6e-06 | 3.7e-06 |  |  | 5.4e-06 | EC50 [2, 18]: 1.3e-06 M
